Results taken from the kinase profiling compilation of Christmann-Franck et al. (2016).

How the values were obtained:
[1] = molecular target: LRRK2 (human) (UniProt Q5S007); test: HTRF; details: ATP 100 µM
[2] = molecular target: LRRK2 (human), Q5S007 [G2019S]; test: HTRF; details: ATP 100 µM
[3] = molecular target: STK3 (human) (UniProt Q13188); test: SelectScreen, TR FRET
[4] = molecular target: PRKCB1 (human) (UniProt P05771); test: SelectScreen, TR FRET
[5] = molecular target: MARK2 (human) (UniProt Q7KZI7); test: SelectScreen, TR FRET; details: compound 10.0 µM
[6] = molecular target: JAK1 JH1 JH2 (human) (UniProt P23458); test: SelectScreen, TR FRET
[7] = molecular target: CLK1 (human) (UniProt P49759); test: SelectScreen, TR FRET; details: compound 10.0 µM
[8] = molecular target: PLK2 (human) (UniProt Q9NYY3); test: SelectScreen, TR FRET; details: compound 10.0 µM
[9] = molecular target: FLT3 (human) (UniProt P36888); test: SelectScreen, TR FRET
[10] = molecular target: MAP3K7 TAB1 (human) (UniProt Q15750+O43318); test: SelectScreen, TR FRET
[11] = molecular target: ROCK2 (human) (UniProt O75116); test: SelectScreen, TR FRET
Sequence of ROCK2 (human) (O75116 whole entry, looked up): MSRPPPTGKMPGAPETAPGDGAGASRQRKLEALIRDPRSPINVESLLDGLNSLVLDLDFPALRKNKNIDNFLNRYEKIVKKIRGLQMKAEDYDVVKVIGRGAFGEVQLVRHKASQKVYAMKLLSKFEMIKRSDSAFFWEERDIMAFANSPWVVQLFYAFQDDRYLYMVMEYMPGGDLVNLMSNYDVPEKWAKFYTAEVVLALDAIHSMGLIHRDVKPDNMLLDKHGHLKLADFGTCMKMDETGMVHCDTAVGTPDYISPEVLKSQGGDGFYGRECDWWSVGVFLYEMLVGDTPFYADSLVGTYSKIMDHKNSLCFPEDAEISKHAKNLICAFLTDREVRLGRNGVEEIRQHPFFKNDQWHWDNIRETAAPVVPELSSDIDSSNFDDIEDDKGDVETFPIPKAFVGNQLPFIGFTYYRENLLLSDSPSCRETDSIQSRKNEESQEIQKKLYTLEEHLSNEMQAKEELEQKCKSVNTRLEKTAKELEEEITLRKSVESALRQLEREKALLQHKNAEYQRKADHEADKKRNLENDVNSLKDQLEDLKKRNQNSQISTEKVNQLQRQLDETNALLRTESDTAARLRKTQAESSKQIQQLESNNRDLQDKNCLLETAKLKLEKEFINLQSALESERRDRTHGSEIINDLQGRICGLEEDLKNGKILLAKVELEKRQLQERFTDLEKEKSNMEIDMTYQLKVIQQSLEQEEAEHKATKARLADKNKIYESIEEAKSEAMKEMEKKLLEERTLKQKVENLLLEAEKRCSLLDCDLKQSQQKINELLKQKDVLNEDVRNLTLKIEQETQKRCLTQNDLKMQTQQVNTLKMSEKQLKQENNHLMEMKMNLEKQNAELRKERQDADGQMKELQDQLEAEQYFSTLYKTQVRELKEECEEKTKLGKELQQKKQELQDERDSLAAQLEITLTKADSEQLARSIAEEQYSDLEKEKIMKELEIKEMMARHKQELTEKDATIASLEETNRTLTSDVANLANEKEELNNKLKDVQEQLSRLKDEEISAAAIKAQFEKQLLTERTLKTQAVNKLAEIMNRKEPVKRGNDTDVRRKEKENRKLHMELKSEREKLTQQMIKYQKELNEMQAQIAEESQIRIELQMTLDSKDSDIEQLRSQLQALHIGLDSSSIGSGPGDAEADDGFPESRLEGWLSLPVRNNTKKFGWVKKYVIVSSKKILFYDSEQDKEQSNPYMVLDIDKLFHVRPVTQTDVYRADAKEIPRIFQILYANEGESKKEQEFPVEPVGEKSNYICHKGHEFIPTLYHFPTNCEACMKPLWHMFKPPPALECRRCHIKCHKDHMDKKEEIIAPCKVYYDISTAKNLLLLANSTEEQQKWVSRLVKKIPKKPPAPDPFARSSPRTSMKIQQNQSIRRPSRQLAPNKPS

[12] = molecular target: LRRK2 (human) (UniProt Q5S007); test: SelectScreen, TR FRET; details: compound 10.0 µM
[13] = molecular target: CDK1 CCNB1 (human) (UniProt P06493+P14635); test: SelectScreen, TR FRET; details: compound 10.0 µM
[14] = molecular target: MAPK1 (human) (UniProt P28482); test: SelectScreen, TR FRET
Sequence of MAPK1 (human) (P28482 whole entry, looked up): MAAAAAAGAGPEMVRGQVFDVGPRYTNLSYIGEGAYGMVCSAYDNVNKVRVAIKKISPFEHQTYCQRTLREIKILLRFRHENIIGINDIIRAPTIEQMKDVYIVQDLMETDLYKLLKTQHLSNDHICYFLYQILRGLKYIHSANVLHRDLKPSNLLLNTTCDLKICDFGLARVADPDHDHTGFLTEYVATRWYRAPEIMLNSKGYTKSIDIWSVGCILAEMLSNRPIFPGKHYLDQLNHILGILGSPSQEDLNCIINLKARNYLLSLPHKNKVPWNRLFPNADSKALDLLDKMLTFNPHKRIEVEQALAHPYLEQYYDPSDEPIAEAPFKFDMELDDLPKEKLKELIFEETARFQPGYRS

[15] = molecular target: AKT1 (human) (UniProt P31749); test: SelectScreen, TR FRET
Sequence of AKT1 (human) (P31749 whole entry, looked up): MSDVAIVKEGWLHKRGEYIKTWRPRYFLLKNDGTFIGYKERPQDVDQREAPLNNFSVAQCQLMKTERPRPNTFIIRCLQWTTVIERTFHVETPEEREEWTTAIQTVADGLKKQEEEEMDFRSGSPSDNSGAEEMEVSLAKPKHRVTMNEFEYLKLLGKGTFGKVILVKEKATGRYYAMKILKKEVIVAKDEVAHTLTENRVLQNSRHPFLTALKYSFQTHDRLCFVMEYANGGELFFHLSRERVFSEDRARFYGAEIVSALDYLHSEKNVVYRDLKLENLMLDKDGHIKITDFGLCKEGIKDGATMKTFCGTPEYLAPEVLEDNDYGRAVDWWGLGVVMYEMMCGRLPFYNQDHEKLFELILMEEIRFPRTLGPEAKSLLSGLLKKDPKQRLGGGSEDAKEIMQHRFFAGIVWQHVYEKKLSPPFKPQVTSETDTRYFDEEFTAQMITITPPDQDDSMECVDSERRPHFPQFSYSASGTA

[16] = molecular target: LCK (human) (UniProt P06239); test: SelectScreen, TR FRET
[17] = molecular target: PAK4 (human) (UniProt O96013); test: SelectScreen, TR FRET; details: compound 10.0 µM
[18] = molecular target: AURKA (human) (UniProt O14965); test: SelectScreen, TR FRET; details: compound 10.0 µM
[19] = molecular target: CHEK1 (human) (UniProt O14757); test: SelectScreen, TR FRET; details: compound 10.0 µM
[20] = molecular target: SYK (human) (UniProt P43405); test: SelectScreen, TR FRET; details: compound 10.0 µM
[21] = molecular target: STK16 (human) (UniProt O75716); test: SelectScreen, TR FRET
[22] = molecular target: CSF1R (human) (UniProt P07333); test: SelectScreen, TR FRET; details: compound 10.0 µM
[23] = molecular target: IRAK4 (human) (UniProt Q9NWZ3); test: SelectScreen, TR FRET
[24] = molecular target: ABL1 (human) (UniProt P00519); test: SelectScreen, TR FRET; details: compound 10.0 µM
[25] = molecular target: PRKACA (human) (UniProt P17612); test: SelectScreen, TR FRET; details: compound 10.0 µM
[26] = molecular target: PDGFRA (human) (UniProt P16234); test: SelectScreen, TR FRET
[27] = molecular target: GSK3B (human) (UniProt P49841); test: SelectScreen, TR FRET
[28] = molecular target: MAPK10 (human) (UniProt P53779); test: SelectScreen, TR FRET
[29] = molecular target: PTK2B (human) (UniProt Q14289); test: SelectScreen, TR FRET
[30] = molecular target: RAF1 (human) (UniProt P04049); test: SelectScreen, TR FRET
Sequence of RAF1 (human) (P04049 whole entry, looked up): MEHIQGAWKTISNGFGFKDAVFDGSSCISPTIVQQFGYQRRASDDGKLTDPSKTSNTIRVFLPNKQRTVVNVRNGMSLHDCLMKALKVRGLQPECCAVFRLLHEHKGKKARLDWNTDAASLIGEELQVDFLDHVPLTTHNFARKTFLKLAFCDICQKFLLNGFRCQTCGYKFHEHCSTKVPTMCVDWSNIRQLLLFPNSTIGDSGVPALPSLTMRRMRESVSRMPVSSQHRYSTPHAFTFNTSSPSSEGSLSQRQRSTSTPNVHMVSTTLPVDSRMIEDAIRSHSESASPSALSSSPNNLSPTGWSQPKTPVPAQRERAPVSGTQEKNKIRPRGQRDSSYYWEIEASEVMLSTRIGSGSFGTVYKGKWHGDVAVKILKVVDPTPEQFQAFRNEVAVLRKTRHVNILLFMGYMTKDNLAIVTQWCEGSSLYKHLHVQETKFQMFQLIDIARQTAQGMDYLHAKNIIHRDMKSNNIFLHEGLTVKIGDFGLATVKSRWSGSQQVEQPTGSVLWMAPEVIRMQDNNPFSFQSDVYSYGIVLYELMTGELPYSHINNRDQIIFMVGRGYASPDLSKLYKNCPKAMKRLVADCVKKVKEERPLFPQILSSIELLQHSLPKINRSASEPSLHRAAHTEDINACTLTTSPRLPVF

[31] = molecular target: INSR (human) (UniProt P06213); test: SelectScreen, TR FRET
[32] = molecular target: CDK5 CDK5R1 p25 (human) (UniProt Q15078+Q00535); test: SelectScreen, TR FRET
[33] = molecular target: RET (human) (UniProt P07949); test: SelectScreen, TR FRET; details: compound 10.0 µM
[34] = molecular target: TTK (human) (UniProt P33981); test: SelectScreen, TR FRET
Sequence of TTK (human) (P33981 whole entry, looked up): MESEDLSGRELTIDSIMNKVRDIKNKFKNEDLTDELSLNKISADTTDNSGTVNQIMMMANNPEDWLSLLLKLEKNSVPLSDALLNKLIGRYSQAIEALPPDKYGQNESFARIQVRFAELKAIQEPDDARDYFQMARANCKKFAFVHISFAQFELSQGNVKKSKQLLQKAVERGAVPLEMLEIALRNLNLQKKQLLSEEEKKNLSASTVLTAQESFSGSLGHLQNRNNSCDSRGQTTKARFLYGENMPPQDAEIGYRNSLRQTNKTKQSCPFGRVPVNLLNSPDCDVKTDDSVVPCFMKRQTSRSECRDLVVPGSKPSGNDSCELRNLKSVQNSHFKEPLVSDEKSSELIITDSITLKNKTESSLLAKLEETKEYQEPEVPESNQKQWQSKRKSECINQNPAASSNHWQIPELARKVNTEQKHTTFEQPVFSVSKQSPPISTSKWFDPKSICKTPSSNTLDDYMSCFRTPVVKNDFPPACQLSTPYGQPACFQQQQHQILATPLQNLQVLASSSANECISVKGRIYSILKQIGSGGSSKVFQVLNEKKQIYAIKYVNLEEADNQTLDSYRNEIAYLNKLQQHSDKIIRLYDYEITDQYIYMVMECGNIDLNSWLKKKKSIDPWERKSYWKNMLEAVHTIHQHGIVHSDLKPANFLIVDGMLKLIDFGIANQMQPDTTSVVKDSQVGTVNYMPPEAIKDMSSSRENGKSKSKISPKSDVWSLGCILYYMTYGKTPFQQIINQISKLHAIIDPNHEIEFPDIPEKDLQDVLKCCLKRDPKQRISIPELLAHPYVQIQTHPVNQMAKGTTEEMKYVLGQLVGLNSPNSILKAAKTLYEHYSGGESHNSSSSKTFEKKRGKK

[35] = molecular target: RIPK2 (human) (UniProt O43353); test: SelectScreen, TR FRET; details: compound 10.0 µM
[36] = molecular target: CAMK2A (human) (UniProt Q9UQM7); test: SelectScreen, TR FRET
[37] = molecular target: ERBB4 (human) (UniProt Q15303); test: SelectScreen, TR FRET
[38] = molecular target: PLK3 (human) (UniProt Q9H4B4); test: SelectScreen, TR FRET
[39] = molecular target: PIK3CA PIK3R1 (human) (UniProt P27986+P42336); test: SelectScreen, TR FRET
[40] = molecular target: CDK2 CCNA2 (human) (UniProt P24941+P20248); test: SelectScreen, TR FRET
Sequence of CDK2 CCNA2 (human) (P20248 whole entry, looked up, other chains not shown): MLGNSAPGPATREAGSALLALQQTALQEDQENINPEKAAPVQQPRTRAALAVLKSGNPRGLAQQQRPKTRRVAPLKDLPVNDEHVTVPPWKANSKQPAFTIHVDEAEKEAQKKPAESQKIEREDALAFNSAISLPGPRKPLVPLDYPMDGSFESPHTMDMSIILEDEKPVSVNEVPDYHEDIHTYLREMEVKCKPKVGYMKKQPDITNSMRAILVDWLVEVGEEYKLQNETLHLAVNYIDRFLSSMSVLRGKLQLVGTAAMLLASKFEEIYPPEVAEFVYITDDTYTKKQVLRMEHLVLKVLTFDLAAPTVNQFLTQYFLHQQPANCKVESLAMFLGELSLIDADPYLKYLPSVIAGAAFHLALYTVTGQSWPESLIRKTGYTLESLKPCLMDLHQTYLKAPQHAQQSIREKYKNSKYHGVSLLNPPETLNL

[41] = molecular target: PLK1 (human) (UniProt P53350); test: SelectScreen, TR FRET
[42] = molecular target: DYRK1B (human) (UniProt Q9Y463); test: SelectScreen, TR FRET; details: compound 10.0 µM

Sequence of PRKCB1 (human) (P05771 whole entry, looked up): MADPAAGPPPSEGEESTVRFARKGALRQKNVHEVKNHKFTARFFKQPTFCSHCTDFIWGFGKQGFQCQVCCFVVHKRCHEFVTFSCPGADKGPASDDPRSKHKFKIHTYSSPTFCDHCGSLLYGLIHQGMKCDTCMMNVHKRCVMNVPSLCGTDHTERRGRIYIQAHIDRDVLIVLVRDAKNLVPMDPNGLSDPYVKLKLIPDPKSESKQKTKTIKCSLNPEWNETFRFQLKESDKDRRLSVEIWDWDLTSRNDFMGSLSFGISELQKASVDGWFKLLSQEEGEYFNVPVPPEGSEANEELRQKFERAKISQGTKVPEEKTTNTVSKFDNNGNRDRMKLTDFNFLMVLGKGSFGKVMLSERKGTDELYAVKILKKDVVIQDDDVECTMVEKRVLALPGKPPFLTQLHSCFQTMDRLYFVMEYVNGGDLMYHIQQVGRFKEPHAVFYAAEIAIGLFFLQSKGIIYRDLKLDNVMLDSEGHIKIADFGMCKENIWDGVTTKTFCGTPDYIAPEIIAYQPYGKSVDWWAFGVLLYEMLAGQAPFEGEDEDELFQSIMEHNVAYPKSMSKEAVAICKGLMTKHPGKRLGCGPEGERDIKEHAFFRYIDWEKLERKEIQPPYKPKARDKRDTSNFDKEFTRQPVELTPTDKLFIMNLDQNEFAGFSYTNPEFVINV

In the case of `C[C@@H](Nc1c(C#N)cnc2cc(-c3ccc(N4CCOC4=O)cc3)ccc12)C1CC1`, the IC50 [1] is reported as 48 nM, the IC50 [2] is reported as 27 nM and the inhibition ([3]; compound 10.0 µM) is reported as 18.1%. For the same molecule, the inhibition ([4]; compound 10.0 µM) was -1.79%, the inhibition [5] was 40.2% and the inhibition ([6]; compound 10.0 µM) was 4.09%. It also gave an inhibition [7] of 6.88%, an inhibition [8] of 53.7% and an inhibition ([9]; compound 10.0 µM) of 44.5%. It also gave an inhibition ([10]; compound 10.0 µM) of -5.32%, an inhibition ([11]; compound 10.0 µM) of 16.4% and an inhibition [12] of 81.3%. For the same molecule, the inhibition [13] was 11.7%, the inhibition ([14]; compound 10.0 µM) was -1.85% and the inhibition ([15]; compound 10.0 µM) was -1.71%. The inhibition ([16]; compound 10.0 µM) was 18.4%, the inhibition [17] was 19.3% and the inhibition [18] was 66.7%. For the same molecule, the inhibition [19] was 30.7%, the inhibition [20] was 71% and the inhibition ([21]; compound 10.0 µM) was -24.1%. For the same molecule, the inhibition [22] was 39.5%, the inhibition ([23]; compound 10.0 µM) was 9.89% and the inhibition [24] was 29.9%. It also gave an inhibition [25] of -2.65%, an inhibition ([26]; compound 10.0 µM) of 4.67% and an inhibition ([27]; compound 10.0 µM) of 0.682%. It also gave an inhibition ([28]; compound 10.0 µM) of -17.1%, an inhibition ([29]; compound 10.0 µM) of 15.9% and an inhibition ([30]; compound 10.0 µM) of 5.94%. For the same molecule, the inhibition ([31]; compound 10.0 µM) was 0.146%, the inhibition ([32]; compound 10.0 µM) was 5.49% and the inhibition [33] was 11.8%. The inhibition ([34]; compound 10.0 µM) was 11.2%, the inhibition [35] was 55.8% and the inhibition ([36]; compound 10.0 µM) was 29.7%. It also gave an inhibition ([37]; compound 10.0 µM) of 6.95%, an inhibition ([38]; compound 10.0 µM) of 5.89% and an inhibition ([39]; compound 10.0 µM) of 13.5%. For the same molecule, the inhibition ([40]; compound 10.0 µM) was 0.295%, the inhibition ([41]; compound 10.0 µM) was 8.21% and the inhibition [42] was 23.7%.
Work on `CC(C)Nc1c(C#N)cnc2cc(-c3ccc(S(C)(=O)=O)cc3)ccc12` yielded an inhibition ([4]; compound 1.0 µM) of 19.4%, an inhibition ([6]; compound 1.0 µM) of 16.5% and an inhibition ([9]; compound 1.0 µM) of 15.5%. For the same molecule, the inhibition ([10]; compound 1.0 µM) was 7.1%, the inhibition ([11]; compound 1.0 µM) was 11.8% and the inhibition ([14]; compound 1.0 µM) was 9.79%. For the same molecule, the inhibition ([15]; compound 1.0 µM) was 9.66%, the inhibition ([16]; compound 1.0 µM) was 25.5% and the inhibition ([21]; compound 1.0 µM) was 3.38%. It also gave an inhibition ([23]; compound 1.0 µM) of 29.4%, an inhibition ([26]; compound 1.0 µM) of 33.4% and an inhibition ([27]; compound 1.0 µM) of 27.6%. The inhibition ([28]; compound 1.0 µM) was -11.1%, the inhibition ([29]; compound 1.0 µM) was 33.5% and the inhibition ([30]; compound 1.0 µM) was 3.26%. The inhibition ([34]; compound 1.0 µM) was -3.76%, the inhibition ([38]; compound 1.0 µM) was 13.5% and the inhibition ([39]; compound 1.0 µM) was -1.66%. The inhibition ([40]; compound 1.0 µM) was 11.7%.
`CC(C)Nc1c(C#N)cnc2cc(-c3cnn(C)c3)ccc12` was tested, and the IC50 [1] was 70 nM, the IC50 [2] was 50 nM and the inhibition ([3]; compound 1.0 µM) was 15.4%. It also gave an inhibition ([4]; compound 1.0 µM) of -7.3%, an inhibition ([6]; compound 1.0 µM) of 2.9% and an inhibition ([11]; compound 1.0 µM) of 14.2%. It also gave an inhibition ([14]; compound 1.0 µM) of -2.05%, an inhibition ([15]; compound 1.0 µM) of -0.488% and an inhibition ([21]; compound 1.0 µM) of 10.1%. It also gave an inhibition ([28]; compound 1.0 µM) of 4.47%, an inhibition ([29]; compound 1.0 µM) of 12.2% and an inhibition ([30]; compound 1.0 µM) of 12.4%. The inhibition ([31]; compound 1.0 µM) was 1.29%, the inhibition ([32]; compound 1.0 µM) was 12.4% and the inhibition ([34]; compound 1.0 µM) was -8.51%. It also gave an inhibition ([36]; compound 1.0 µM) of 27.5%, an inhibition ([37]; compound 1.0 µM) of 4.52% and an inhibition ([38]; compound 1.0 µM) of 11.5%. It also gave an inhibition ([40]; compound 1.0 µM) of 5.33% and an inhibition ([41]; compound 1.0 µM) of 23.6%.
